Data set [1] has as its system db/db type 2 diabetes model. The data set is described as follows: Pharmacodynamics study on the db/db type 2 diabetes model. To be noted: for Statistical difference (p) of the blood glucose level between treatment group and vehicle group: random blood glucose.
Excerpt: 45 db/db mice were evenly divided into 5 groups before the initiation of treatment based on the body weights, serum triglyceride (TG) levels, and random blood glucose levels.
All animals were weighed daily before each dosing and treated daily for 14 consecutive days.
All the data was imported into an Excel file and presented as Mean±SEM. Graphpad Prism 7.0 software was used for data statistical analysis by One-way or Two-way ANOVA, with P<0.05 as the criterion of significant differences.
In data set [2] the test system is uninephrectomied db/db mice. The experiment in a line: Diabetic nephropathy pharmacodynamic model (uninephrectomied db/db mice). Conditions: Compound 2 treatment, oral once per day.
Description: Housing temperature was maintained at 22-26° C. and humidity at 40%-60%. Mice were allowed to access food and water ad libitum. […] Buprenorphine was applied after surgery.
Two weeks after surgery, db/db mice were randomly assigned into 5 groups. Wild type mice were used for the control animals. […] Compounds were orally administrated once per day for 10 weeks.
At the 5th and 9th week after compound administration, mice were placed in metabolic cages for urine collection. Albumin level was measured for 24 hr albumin excretion calculation. At the 10th week after treatment, the animals were sacrificed for kidney dissection. The kidney was fixed in 10% neutral buffed formalin, then paraffin-embedded for histopathological analysis. Glomerulosclerosis was assessed by evaluating glomerular basement membrane, mesangial expansion, nodular sclerosis and glomerulosclerosis.
Graphpad 8.0 software was used for statistical analysis. The difference between the values were analyzed with one-way ANOVA. The difference between histopathological score was analyzed with Kruskal-Wallis nonparameter test.
Data set [3] is described as follows: 7-day repeated oral gavage, body weights of ICR mice. Type of data set: in vivo. To be noted: for Weight Gain compared with Day 0: n=10. From the text:
After 3 days of acclimatization, ICR mice were grouped according to their body weights. The day of grouping is designated as Day 0. […] The animals were weighed and recorded daily.

Data set [4] relates to rat model of hyperlipidemia induced by high cholesterol diet. The experiment in a line: Rat model of hyperlipidemia induced by high cholesterol diet (serum TG, NEFA). The data set is classed as in vivo, Sprague-Dawley rats. Conditions: for Serum TG / Serum NEFA: mean ± SD, n=6. An excerpt:
On the day before the start of the administration (Day 0), the animals were divided into 7 groups based on body weights and serum indicators and were continually fed with the high-cholesterol diet. The treatment groups were orally dosed with either compound or vehicle while continuing the high-cholesterol diet for a total of 1 week. The animals were weighed daily before the treatment, and the compounds were given at 9:00-9:30 in the morning based on the body weight of the day.

Setting [5] is: 1 mg/kg (Aleglitazar: Day 6; Compound 2: Day 4 and 5; Compounds 4 and 10: Day 4 to Day 7).
Setting [6] is: Day 0 (day before treatment), group later dosed 0.2 mg/kg oral QD x 7 days.
Setting [7] is: Day 0 (day before treatment), group later dosed 0.6 mg/kg oral QD x 7 days.
[8] abbreviates: Day 8, 0.2 mg/kg oral QD x 7 days.
Setting [9] is: Day 8, 0.6 mg/kg oral QD x 7 days.

Take `[2H]C([2H])(Cc1nc(-c2ccccc2)oc1C)Oc1ccc(C[C@H](OC)C(=O)O)c2sccc12` (single isomer, unassigned) [Compound 2]: the “Average daily body weights compared with the vehicle group” value in data set [1] (Day 10 to Day 15, Aleglitazar 0.2 mg/kg, Compound 2 0.05, 0.2, 1 mg/kg) is “significantly higher”. Further, the “Statistical difference (p) of the blood glucose level between OGTT treatment group and vehicle group” value in data set [1] (OGTT Day 14, 0 min, 0.05 mpk) is on record as “p > 0.05”; in data set [1] (OGTT Day 14, 0 min, 0.2 mpk), “p < 0.01”; in data set [1] (OGTT Day 14, 0 min, 1 mpk) it was “p < 0.0001”; in data set [1] (OGTT Day 14, 15 min, 0.05 mpk) it was “p > 0.05”; in data set [1] (OGTT Day 14, 15 min, 0.2 mpk), “p > 0.05”; in data set [1] (OGTT Day 14, 15 min, 1 mpk) it was “p < 0.0001”. In addition, the “Statistical difference (p) of the blood glucose level between OGTT treatment group and vehicle group” value in data set [1] (OGTT Day 14, 30 min, 0.05 mpk) is reported as “p > 0.05”; in data set [1] (OGTT Day 14, 30 min, 0.2 mpk), “p > 0.05”; in data set [1] (OGTT Day 14, 30 min, 1 mpk), “p < 0.05”; in data set [1] (OGTT Day 14, 60 min, 0.05 mpk), “p > 0.05”; in data set [1] (OGTT Day 14, 60 min, 0.2 mpk), “p < 0.01”; in data set [1] (OGTT Day 14, 60 min, 1 mpk), “p < 0.0001”. Moreover, the “Statistical difference (p) of the blood glucose level between OGTT treatment group and vehicle group” value was “p > 0.05” in data set [1] (OGTT Day 14, 120 min, 0.05 mpk); “p < 0.05” in data set [1] (OGTT Day 14, 120 min, 0.2 mpk); “p < 0.001” in data set [1] (OGTT Day 14, 120 min, 1 mpk). Further, the “Statistical difference (p) of the blood glucose level between treatment group and vehicle group” value is “p > 0.05” in data set [1] (Day 0, 0.05 mpk); “p > 0.05” in data set [1] (Day 0, 0.2 mpk); “p > 0.05” in data set [1] (Day 0, 1 mpk); “p > 0.05” in data set [1] (Day 7, 0.05 mpk); “p > 0.05” in data set [1] (Day 7, 0.2 mpk); “p < 0.05” in data set [1] (Day 7, 1 mpk). The “Statistical difference (p) of the blood glucose level between treatment group and vehicle group” value in data set [1] (Day 14, 0.05 mpk) is “p > 0.05”; in data set [1] (Day 14, 0.2 mpk), “p < 0.05”; in data set [1] (Day 14, 1 mpk) it was “p < 0.0001”. In addition, the “Reduction of urine albumin” value in data set [2] is given as “More than 50%”. In addition, the “Daily average weight gain compared with the vehicle group” value in data set [3] (0.2 mg/kg (Aleglitazar: Day 4 and Day 5; Compound 2: throughout the study)) was “no significant difference”; in data set [3] (setting [5]) it was “significantly higher”. Further, the “Weight Gain compared with Day 0” value in data set [3] (Day 1, 0.2 mg/kg oral QD) stood at 0.45 ± 0.28 g; in data set [3] (Day 1, 1 mg/kg oral QD), 0.4 ± 0.17 g; in data set [3] (Day 2, 0.2 mg/kg oral QD), 1.42 ± 0.22 g; in data set [3] (Day 2, 1 mg/kg oral QD), 1.57 ± 0.26 g; in data set [3] (Day 3, 0.2 mg/kg oral QD), 2.56 ± 0.23 g; in data set [3] (Day 3, 1 mg/kg oral QD), 2.71 ± 0.19 g. Also, the “Weight Gain compared with Day 0” value in data set [3] (Day 4, 0.2 mg/kg oral QD) is 2.96 ± 0.23 g; in data set [3] (Day 4, 1 mg/kg oral QD) it was 3.61 ± 0.19 g; in data set [3] (Day 5, 0.2 mg/kg oral QD), 3.73 ± 0.34 g; in data set [3] (Day 5, 1 mg/kg oral QD), 3.96 ± 0.29 g; in data set [3] (Day 6, 0.2 mg/kg oral QD) it was 4.66 ± 0.39 g; in data set [3] (Day 6, 1 mg/kg oral QD), 4.84 ± 0.4 g. The “Weight Gain compared with Day 0” value in data set [3] (Day 7, 0.2 mg/kg oral QD) was 5.08 ± 0.42 g; in data set [3] (Day 7, 1 mg/kg oral QD), 5.44 ± 0.36 g. For the same compound, the “Serum TG” value in data set [4] (setting [6]) was 4.27 ± 1.61 mmol/L; in data set [4] (setting [7]), 4.11 ± 1.10 mmol/L; in data set [4] (setting [8]), 1.71 ± 0.72 mmol/L; in data set [4] (setting [9]), 1.86 ± 0.99 mmol/L. Moreover, the “Serum NEFA” value in data set [4] (setting [8]) stood at 431.50 ± 151.63 µmol/L; in data set [4] (setting [9]), 444.33 ± 119.12 µmol/L.

Regarding `CO[C@@H](Cc1ccc(OCCc2nc(-c3ccccc3)oc2C)c2ccsc12)C(=O)O` (single isomer, unassigned) [Compound 4], the “Serum NEFA compared with Aleglitazar” value in data set [4] (0.2 mg/kg, T-test, P<0.05) is “significantly reduce”. Moreover, the “Serum TG and NEFA levels compared with the vehicle group” value in data set [4] (Day 8, both 0.2 mg/kg and 0.6 mg/kg) is listed as “significantly reduce”.

With `[2H]c1c([2H])c([2H])c(-c2nc(CCOc3ccc(C[C@H](OC)C(=O)O)c4sccc34)c(C)o2)c([2H])c1[2H]` (single isomer, unassigned) [Compound 4], the “Daily average weight gain compared with the vehicle group” value in data set [3] (setting [5]) is given as “significantly higher”. For the same compound, the “Weight Gain compared with Day 0” value in data set [3] (Day 1, 1 mg/kg oral QD) turned out to be 0.35 ± 0.24 g; in data set [3] (Day 2, 1 mg/kg oral QD), 1.45 ± 0.34 g; in data set [3] (Day 3, 1 mg/kg oral QD), 2.75 ± 0.41 g; in data set [3] (Day 4, 1 mg/kg oral QD) it was 3.71 ± 0.46 g; in data set [3] (Day 5, 1 mg/kg oral QD), 4.26 ± 0.47 g; in data set [3] (Day 6, 1 mg/kg oral QD), 5.36 ± 0.54 g. In data set [3] (Day 7, 1 mg/kg oral QD), the “Weight Gain compared with Day 0” value is listed as 5.91 ± 0.56 g. Further, the “Serum TG” value in data set [4] (setting [6]) is given as 4.22 ± 1.71 mmol/L; in data set [4] (setting [7]) it was 4.00 ± 1.71 mmol/L; in data set [4] (setting [8]), 2.46 ± 1.18 mmol/L; in data set [4] (setting [9]), 1.93 ± 0.58 mmol/L. In addition, the results for the “Serum NEFA” value in data set [4] (setting [8]) and in data set [4] (setting [9]) were 490.33 ± 113.61 µmol/L and 347.83 ± 113.61 µmol/L, respectively.

As to `[2H]c1cccc([2H])c1-c1nc(CC([2H])([2H])Oc2ccc(C[C@H](OC)C(=O)O)c3sccc23)c(C)o1` (single isomer, unassigned) [Compound 10], in data set [3] (setting [5]), the “Daily average weight gain compared with the vehicle group” value is “significantly higher”. Also, the “Weight Gain compared with Day 0” value in data set [3] (Day 1, 1 mg/kg oral QD) was found to be 0.34 ± 0.17 g; in data set [3] (Day 2, 1 mg/kg oral QD), 1.63 ± 0.41 g; in data set [3] (Day 3, 1 mg/kg oral QD), 2.96 ± 0.37 g; in data set [3] (Day 4, 1 mg/kg oral QD), 3.85 ± 0.38 g; in data set [3] (Day 5, 1 mg/kg oral QD), 4.59 ± 0.39 g; in data set [3] (Day 6, 1 mg/kg oral QD), 5.75 ± 0.39 g. Further, the “Weight Gain compared with Day 0” value in data set [3] (Day 7, 1 mg/kg oral QD) is 6.11 ± 0.53 g.

The values above are taken from patent US20240270731A1, “[…]” (ALEBUND PHARMACEUTICALS (HONG KONG) LIMITED, priority 2021, published 2024).
